Converted amounts (≈) assume the structure as drawn.
Tests used:
[1] = system: Mycobacterium tuberculosis; test: microbe, parasite or virus in culture; type: functional
[2] = system: Mycobacterium tuberculosis; test: microbe, parasite or virus in culture; type: functional; remark: listed apart in the source

SMILES	MIC [1] [µg/mL]	MIC [2] [µg/mL]
CCCc1cc(=O)oc2c1c(OCCN1CCOCC1)cc1oc(-c3noc(=O)[nH]3)cc12	> 50	> 50
CCCc1cc(=O)oc2c1c(OCCN1CCOCC1)cc1oc(-c3noc(C(F)(F)F)n3)cc12	> 50	> 50
CCCc1cc(=O)oc2c1c1c(c3oc(C(=O)NN)cc32)C=CC(C)(C)O1	50 (≈ 136 µM)	> 50
CCCc1cc(=O)oc2c1c(OCCN1CCOCC1)cc1oc(C(=N)N)cc12	> 50	> 50
CCCc1cc(=O)oc2c1c(OCCN1CCOCC1)cc1oc(C(=O)NN)cc12	> 50	> 50
CCCc1cc(=O)oc2c1c(OCCN1CCOCC1)cc1oc(C(=O)OCC)cc12	> 50	> 50
CCCc1cc(=O)oc2c1c1c(c3oc(NC(=O)OCC)cc32)C=CC(C)(C)O1	> 50	> 50
CCCc1cc(=O)oc2c1c1c(c3oc(C(=O)O)cc32)C=CC(C)(C)O1	> 50	> 50
CCCc1cc(=O)oc2c1c1c(c3oc(C(=O)N=[N+]=[N-])cc32)C=CC(C)(C)O1	> 50	> 50
CCCc1cc(=O)oc2c1c(OCCN1CCOCC1)cc1oc(C#N)cc12	> 50	> 50
CCCc1cc(=O)oc2c1c1c(c3oc(C#N)cc32)C=CC(C)(C)O1	> 50	> 50
CCCc1cc(=O)oc2c1c(OCCN1CCOCC1)cc1oc(/C(N)=N\O)cc12	> 50	> 50
CCCc1cc(=O)oc2c1c1c(c3oc(C(=O)NNC(=O)c4ccncc4)cc32)C=CC(C)(C)O1	25 (≈ 52.8 µM)	> 50
CCCc1cc(=O)oc2c1c(OCCN1CCOCC1)cc1oc(C(=O)O)cc12	> 50	> 50
CCCc1cc(=O)oc2c1c1c(c3oc(C(=O)OCC)cc32)C=CC(C)(C)O1	> 50	> 50
CCCc1cc(=O)oc2c1c(OCCN1CCOCC1)cc1oc(-c3noc(C)n3)cc12	> 50	> 50

— ChEMBL document CHEMBL3396945, “Modified calanolides incorporated with furan-2-nitro mimics against Mycobacterium tuberculosis” (2015)
